Assay results taken from patent US6908935B2, “Calcium receptor modulating agents” (Amgen Inc., priority 2002, dated 2005).

Target: T1, human parathyroid cell Ca^2+ receptor (hPCaR) (Homo sapiens, UniProt P41180)
T1 construct: expressed in transfected cells
T1 sequence (P41180 20-1078): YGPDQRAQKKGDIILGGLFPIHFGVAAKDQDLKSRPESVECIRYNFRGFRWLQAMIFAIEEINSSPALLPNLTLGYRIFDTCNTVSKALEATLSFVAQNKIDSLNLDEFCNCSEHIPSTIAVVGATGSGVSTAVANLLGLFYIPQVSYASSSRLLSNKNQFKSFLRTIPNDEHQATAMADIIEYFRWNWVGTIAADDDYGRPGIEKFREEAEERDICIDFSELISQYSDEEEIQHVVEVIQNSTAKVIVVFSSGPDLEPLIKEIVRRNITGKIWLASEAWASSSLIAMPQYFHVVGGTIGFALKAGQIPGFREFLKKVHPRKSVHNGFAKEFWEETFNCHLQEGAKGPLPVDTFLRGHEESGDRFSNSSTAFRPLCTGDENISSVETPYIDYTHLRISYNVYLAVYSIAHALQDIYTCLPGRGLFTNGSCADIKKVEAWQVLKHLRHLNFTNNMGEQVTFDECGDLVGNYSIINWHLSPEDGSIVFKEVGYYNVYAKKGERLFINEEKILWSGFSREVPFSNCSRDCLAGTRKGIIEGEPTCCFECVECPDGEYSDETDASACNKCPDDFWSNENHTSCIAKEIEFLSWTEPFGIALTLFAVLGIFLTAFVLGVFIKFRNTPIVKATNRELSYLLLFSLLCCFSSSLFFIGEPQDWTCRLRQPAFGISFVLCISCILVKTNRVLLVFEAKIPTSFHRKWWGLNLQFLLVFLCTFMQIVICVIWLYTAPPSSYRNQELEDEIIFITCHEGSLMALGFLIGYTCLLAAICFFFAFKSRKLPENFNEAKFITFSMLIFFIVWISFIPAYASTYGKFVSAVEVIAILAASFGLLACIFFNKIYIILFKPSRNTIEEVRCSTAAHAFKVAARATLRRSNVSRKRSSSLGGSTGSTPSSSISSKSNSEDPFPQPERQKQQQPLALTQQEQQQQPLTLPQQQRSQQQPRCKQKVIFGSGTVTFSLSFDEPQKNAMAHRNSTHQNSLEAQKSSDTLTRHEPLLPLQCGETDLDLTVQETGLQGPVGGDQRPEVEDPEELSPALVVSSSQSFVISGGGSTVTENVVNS
Experiment: [Ca2+]i measurement with fluo-3 in HEK 293 4.0-7 cells stably transfected with hPCaR
Format: cell-based
Conditions: fluo-3 fluorescence (485/530 nm), effect on [Ca^2+]i
Procedure, shortened: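 HEK 293 cells stably expressing human parathyroid Ca2+ receptor (clone 4.0-7), loaded with 2 μM fluo-3 AM for 30 min at 37 °C in parathyroid cell buffer (pH 7.45) with 1 mM CaCl2 and 0.5% BSA. After compound addition, intracellular Ca2+ followed by fluorescence at 485 nm excitation/530 nm emission.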

| Compound | EC50 [µM] |
| --- | --- |
| COc1cccc([C@@H](C)NCc2ccc(C(F)(F)F)c(-c3ccc(C(F)(F)F)cc3)c2)c1 [(1R)-N-((4′,6-bis(trifluoromethyl)-1,1′-biphenyl-3-yl)methyl)-1-(3-(methyloxy)phenyl)ethanamine] | ≤ 10 |
| COc1cccc(-c2cccc(CN[C@H](C)c3ccc(C)cc3)c2)c1 [(1R)-N-((3′-(methyloxy)-1,1′-biphenyl-3-yl)methyl)-1-(4-methylphenyl)ethanamine] | ≤ 10 |
| COc1ccc(CN[C@H](C)c2ccccc2)cc1-c1nc2ccccc2s1 [(1R)-N-((3-(1,3-benzothiazol-2-yl)-4-(methyloxy)phenyl)methyl)-1-phenylethanamine] | ≤ 10 |
| COc1ccc(CN[C@H](C)c2ccccc2)cc1-c1cncc(C(N)=O)c1 [5-(2-(methyloxy)-5-((((1R)-1-phenylethyl)amino)methyl)phenyl)-3-pyridinecarboxamide] | ≤ 10 |
| C[C@@H](NCc1ccc(I)c(-c2ccc(C(F)(F)F)cc2)c1)c1ccccc1 [(1R)-N-((6-iodo-4′-(trifluoromethyl)-1,1′-biphenyl-3-yl)methyl)-1-phenylethanamine] | ≤ 10 |
| Cc1ccc(-c2cccc(CN[C@H](C)c3ccccc3)c2)cn1 [(1R)-N-((3-(6-methyl-3-pyridinyl)phenyl)methyl)-1-phenylethanamine] | ≤ 10 |
| COc1ccc(CN[C@H](C)c2ccccc2)cc1-c1ccc2ccccc2c1 [(1R)-N-((4-(methyloxy)-3-(2-naphthalenyl)phenyl)methyl)-1-phenylethanamine] | ≤ 10 |
| COc1ccc(CN[C@H](C)c2ccccc2)cc1-c1ccc2ccn(C)c2c1 [(1R)-N-((3-(1-methyl-1H-indol-6-yl)-4-(methyloxy)phenyl)methyl)-1-phenylethanamine] | ≤ 10 |
| CCNC(=O)Nc1ccc(CN[C@H](C)c2cccc(OC)c2)cc1-c1ccc(OC)cc1 [N-ethyl-N′-(4′-(methyloxy)-5-((((1R)-1-(3-(methyloxy)phenyl)ethyl)amino)methyl)-1,1′-biphenyl-2-yl)urea] | ≤ 10 |
| Cc1ccc(-c2cccc(CN[C@H](C)c3cccc4ccccc34)c2)cn1 [(1R)-N-((3-(6-methyl-3-pyridinyl)phenyl)methyl)-1-(1-naphthalenyl)ethanamine] | ≤ 10 |
| COc1ccc(CN[C@H](C)c2cccc3ccccc23)cc1-c1cccc(OC(F)(F)F)c1 [(1R)-N-((6-(methyloxy)-3′-((trifluoromethyl)oxy)-1,1′-biphenyl-3-yl)methyl)-1-(1-naphthalenyl)ethanamine] | ≤ 10 |
| COc1ccc(-c2cc(CN[C@H](C)c3cccc4ccccc34)ccc2OC)nc1 [(1R)-N-((4-(methyloxy)-3-(5-(methyloxy)-2-pyridinyl)phenyl)methyl)-1-(1-naphthalenyl)ethanamine] | ≤ 10 |
| COc1cccc([C@@H](C)NCc2ccc(OC)c(-c3ccc4c(c3)ncn4C)c2)c1 [(1R)-N-((3-(1-methyl-1H-benzimidazol-5-yl)-4-(methyloxy)phenyl)methyl)-1-(3-(methyloxy)phenyl)ethanamine] | ≤ 10 |
| COc1cccc([C@@H](C)NCc2ccc(OC)c(-c3nc4ccccc4s3)c2)c1 [(1R)-N-((3-(1,3-benzothiazol-2-yl)-4-(methyloxy)phenyl)methyl)-1-(3-(methyloxy)phenyl)ethanamine] | ≤ 10 |
| COc1ccc(CN[C@H](C)c2ccc(C)cc2)cc1-c1nccs1 [(1R)-N-((4-(methyloxy)-3-(1,3-thiazol-2-yl)phenyl)methyl)-1-(4-methylphenyl)ethanamine] | ≤ 10 |
| COc1ccc(CN[C@H](C)c2ccccc2)cc1-c1cccc(C(=O)O)c1 [2′-(methyloxy)-5′-((((1R)-1-phenylethyl)amino)methyl)-1,1′-biphenyl-3-carboxylic acid] | ≤ 10 |

Now from value to compound:

| EC50 [µM] | Compound |
| --- | --- |
| ≤ 10 | COc1ccc(CN[C@H](C)c2ccccc2)cc1-c1ccc(C(F)(F)F)nc1 [(1R)-N-((4-(methyloxy)-3-(6-(trifluoromethyl)-3-pyridinyl)phenyl)methyl)-1-phenylethanamine] |
| ≤ 10 | COc1cccc(-c2cc(CN[C@H](C)c3cccc(OC)c3)ccc2OC)c1 [(1R)-N-((3′,6-bis(methyloxy)-1,1′-biphenyl-3-yl)methyl)-1-(3-(methyloxy)phenyl)ethanamine] |
| ≤ 10 | COc1ccc([C@@H](C)NCc2ccc(OC)c(-c3cccnc3)c2)cc1 [(1R)-1-(4-(methyloxy)phenyl)-N-((4-(methyloxy)-3-(3-pyridinyl)phenyl)methyl)ethanamine] |
| ≤ 10 | COCCOc1ccc(CN[C@H](C)c2cccc(OC)c2)cc1-c1ccc(C(F)(F)F)cc1 [(1R)-N-((6-((2-(methyloxy)ethyl)oxy)-4′-(trifluoromethyl)-1,1′-biphenyl-3-yl)methyl)-1-(3-(methyloxy)phenyl)ethanamine] |
| ≤ 10 | COc1ccc(-c2cc(CN[C@H](C)c3cccc(OC)c3)ccc2NS(C)(=O)=O)cc1 [N-(4′-(methyloxy)-5-((((1R)-1-(3-(methyloxy)phenyl)ethyl)amino)methyl)-1,1′-biphenyl-2-yl)methanesulfonamide] |
| ≤ 10 | C[C@@H](NCc1ccc(OCC(F)(F)F)c(-c2ccc(C(F)(F)F)cc2)c1)c1cccc2ccccc12 [(1R)-1-(1-naphthalenyl)-N-((6-((2,2,2-trifluoroethyl)oxy)-4′-(trifluoromethyl)-1,1′-biphenyl-3-yl)methyl)ethanamine] |
| ≤ 10 | COc1ccc(CN[C@H](C)c2cccc3ccccc23)cc1-c1cnccn1 [(1R)-N-((4-(methyloxy)-3-(2-pyrazinyl)phenyl)methyl)-1-(1-naphthalenyl)ethanamine] |
| ≤ 10 | COc1ccc(CN[C@H](C)c2ccc(C)cc2)cc1-c1ccsc1 [(1R)-N-((4-(methyloxy)-3-(3-thienyl)phenyl)methyl)-1-(4-methylphenyl)ethanamine] |
| ≤ 10 | COc1cccc([C@@H](C)NCc2cccc(-c3nccs3)c2)c1 [(1R)-1-(3-(methyloxy)phenyl)-N-((3-(1,3-thiazol-2-yl)phenyl)methyl)ethanamine] |
| ≤ 10 | COc1ccc(CN[C@H](C)c2ccccc2)cc1-c1ccc2nccn2c1 [(1R)-N-((3-imidazo[1,2-a]pyridin-6-yl-4-(methyloxy)phenyl)methyl)-1-phenylethanamine] |
| ≤ 10 | COc1ccc(CN[C@H](C)c2cccc3ccccc23)cc1-c1cccc(C(N)=O)c1 [2′-(methyloxy)-5′-((((1R)-1-(1-naphthalenyl)ethyl)amino)methyl)-1,1′-biphenyl-3-carboxamide] |
| ≤ 10 | COc1ccc([C@@H](C)NCc2cccc(-c3ccoc3)c2)cc1 [Example 223, (1R)-N-((3-(3-furanyl)phenyl)methyl)-1-(4-(methyloxy)phenyl)ethanamine] |
| ≤ 10 | COc1ccc(CN[C@H](C)c2ccccc2)cc1-c1cnc(OCC(F)(F)F)nc1 [(1R)-N-((4-(methyloxy)-3-(2-((2,2,2-trifluoroethyl)oxy)-5-pyrimidinyl)phenyl)methyl)-1-phenylethanamine] |
| ≤ 10 | COc1cccc([C@@H](C)NCc2ccc(OC)c(-c3ccc4nonc4c3)c2)c1 [(1R)-N-((3-(2,1,3-benzoxadiazol-5-yl)-4-(methyloxy)phenyl)methyl)-1-(3-(methyloxy)phenyl)ethanamine] |
| ≤ 10 | COc1ccc(CN[C@H](C)c2ccccc2)cc1-c1cccs1 [(1R)-N-((4-(methyloxy)-3-(2-thienyl)phenyl)methyl)-1-phenylethanamine] |
